Results published in patent publication US10538674B2, “Method of forming anti-rust or anti-bacterial film containing tannic acid derivatives” (NATIONAL INSTITUTE FOR MATERIALS SCIENCE, priority 2014, dated 2020).

Experiments:
colon bacilli (E. Coli) = experiment: Pasteurization/Sterilization Testing 1: E. Coli scattered on film on glass substrate; type: cell-based; settings: drop-cast film on glass substrate, room temperature, 24 hours after scattering, 0 hour count 1.2×10^5
Procedure: Using TA (Comparative Example 1), TA(C6)10 (Example 6), TA(C10)10 (Example 2), and TA(C16)10 (Example 8), respectively, a film was formed by drop-casting on a 5 cm×5 cm glass substrate. Preparing a THF solution, drop-casting of the THF solution in an amount of 1.1 mg/cm^2 was followed by annealing under the conditions of 1 hour and 80° C. to prepare a drop-cast film. The TA (Comparative Example 1), TA(C6)10 (Example 6), TA(C10)10 (Example 2), and TA(C16)10 (Example 8) film was formed on the glass substrate by the aforesaid method, and colon bacilli (E. Coli) were scattered on it to observe changes in the surface of the film at room temperature. FIG. 18 is a graph representative of the results of proliferation of bacteria on the film. The cell count of colon bacilli scattered at the start (0 hour) was 1.2×10^5 CFU/mL. After the lapse of 24 hours, that cell count increased to 1.4×10^7 CFU/mL for the TA coated (control) film. […] A problem with tannic acid—known so far to be capable of pasteurization in the form of an aqueous solution—was that a tannic acid film is wrinkled up, running short of durability. […] It is here to be noted that the unit CFU/mL is an abbreviation of a colony forming unit indicative of a quantitative unit used in the inspection of bacteria in foods or a unit of the quantity of bacteria. […]

[1] = test system: golden staphs (S. Aureus); experiment: Pasteurization/Sterilization Testing 1: S. Aureus scattered on film on glass substrate; type: cell-based; settings: drop-cast film on glass substrate, 24 hours after scattering; 0 hour count 1.1 × 10^5
[2] = test system: methicillin-resistant Staphylococcus Aureus (MRSA); experiment: Pasteurization/Sterilization Testing 1: MRSA scattered on film on glass substrate; type: cell-based; settings: drop-cast film on glass substrate, 24 hours after scattering; 0 hour count 1.2 × 10^5
[3] = Solubility upon addition to water and chloroform; type: physicochemical
Excerpt: Tannic acid powders (WAKO, 203-06331) were kept at the ready. FIG. 2(a) is a photograph taken of the external view of tannic acid powders, FIG. 2(b) is a photograph of the external view of tannic acid powders upon added to water, and FIG. 2(c) is a photograph of the external view of tannic acid powders upon added to chloroform. As shown in FIG. 2(a), the tannic acid powders were ocher powders. […] This tannic acid material was used for Comparative Example 1. FIG. 4(a) is a photograph taken of the external view of the derivative, and FIGS. 4(b) and 4(c) are photographs taken of the external views of the derivative upon added to water and chloroform, respectively.

## O=C(OC[C@H]1O[C@@H](OC(=O)c2cc(O)c(O)c(OC(=O)c3cc(O)c(O)c(O)c3)c2)[C@H](OC(=O)c2cc(O)c(O)c(OC(=O)c3cc(O)c(O)c(O)c3)c2)[C@@H](OC(=O)c2cc(O)c(O)c(OC(=O)c3cc(O)c(O)c(O)c3)c2)[C@@H]1OC(=O)c1cc(O)c(O)c(OC(=O)c2cc(O)c(O)c(O)c2)c1)c1cc(O)c(O)c(OC(=O)c2cc(O)c(O)c(O)c2)c1 [TA, tannic acid]
Colon bacilli (E. Coli); listed as Control
  Cell count of E. Coli, 24 hours: 1.4 × 10^7 CFU/mL
Colon bacilli (E. Coli); listed as TA coated (control)
  Cell count of E. Coli, 24 hours: 1.4×10^7 CFU/mL
[1]
  Cell count of S. Aureus, 24 hours: 1.1 × 10^5 CFU/mL
[2]
  Cell count of MRSA, 24 hours: 1.7 × 10^5 CFU/mL
[3]; upon added to chloroform (CHCl3)
  Solubility in chloroform: not in chloroform
[3]; upon added to water
  Solubility in water: dissolved in water
